Reference: ChEMBL document CHEMBL5154747, “Discovery of new carbonic anhydrase IX inhibitors as anticancer agents by toning the hydrophobic and hydrophilic rims of the active site to encounter the dual-tail approach” (Eur J Med Chem, 2022)

System: T47D
Experiment: Anticancer activity against human T47D cells assessed as cell growth inhibition at 10 uM incubated for 48 hrs by SRB assay relative to control
Format: functional
Conditions: read-out: GI

**Q.** Which inhibition of growth at 10 µM does the source give for `NS(=O)(=O)c1ccc(Nc2nc(N/N=C/c3ccc(Cl)cc3)nc(Nc3ccccc3)n2)cc1` here?
**A.** The inhibition of growth at 10 µM was 55%.

System: U-251
Experiment: Anticancer activity against human U-251 cells assessed as cell growth inhibition at 10 uM incubated for 48 hrs by SRB assay relative to control
Format: functional
Conditions: read-out: GI

**Q.** How did the inhibition of growth at 10 µM turn out when `NS(=O)(=O)c1ccc(Nc2nc(N/N=C/c3ccc(Cl)cc3)nc(Nc3ccccc3)n2)cc1` was run?
**A.** The inhibition of growth at 10 µM was 45%.

System: SK-MEL-28
Experiment: Anticancer activity against human SK-MEL-28 cells assessed as cell growth inhibition at 10 uM incubated for 48 hrs by SRB assay relative to control
Format: functional
Conditions: read-out: GI

**Q.** With `NS(=O)(=O)c1ccc(Nc2nc(N/N=C/c3ccc(Cl)cc3)nc(Nc3ccccc3)n2)cc1` as the compound, how does the inhibition of growth at 10 µM read?
**A.** The inhibition of growth at 10 µM was 24%.

System: RPMI-8226
Experiment: Anticancer activity against human RPMI-8226 cells assessed as cell growth inhibition at 10 uM incubated for 48 hrs by SRB assay relative to control
Format: functional
Conditions: read-out: GI

**Q.** How did the inhibition of growth at 10 µM turn out when `NS(=O)(=O)c1ccc(Nc2nc(N/N=C/c3ccc(Cl)cc3)nc(Nc3ccccc3)n2)cc1` was run?
**A.** Its inhibition of growth at 10 µM is 45%.

System: SK-OV-3
Experiment: Anticancer activity against human SK-OV-3 cells assessed as cell growth inhibition at 10 uM incubated for 48 hrs by SRB assay relative to control
Format: functional
Conditions: read-out: GI

**Q.** With `NS(=O)(=O)c1ccc(Nc2nc(N/N=C/c3ccc(Cl)cc3)nc(Nc3ccccc3)n2)cc1` as the compound, how does the inhibition of growth at 10 µM read?
**A.** Its inhibition of growth at 10 µM is < 10%.

System: CAKI-1
Experiment: Anticancer activity against human CAKI-1 cells assessed as cell growth inhibition at 10 uM incubated for 48 hrs by SRB assay relative to control
Format: functional
Conditions: read-out: GI

**Q.** `NS(=O)(=O)c1ccc(Nc2nc(N/N=C/c3ccc(Cl)cc3)nc(Nc3ccccc3)n2)cc1` was tested. Which inhibition of growth at 10 µM did it give?
**A.** Its inhibition of growth at 10 µM is 37%.

System: NCI-H522
Experiment: Anticancer activity against human NCI-H522 cells assessed as cell growth inhibition at 10 uM incubated for 48 hrs by SRB assay relative to control
Format: functional
Conditions: read-out: GI

**Q.** For `NS(=O)(=O)c1ccc(Nc2nc(N/N=C/c3ccc(Cl)cc3)nc(Nc3ccccc3)n2)cc1`, which inhibition of growth at 10 µM is on record?
**A.** The inhibition of growth at 10 µM was 20%.

System: SK-MEL-5
Experiment: Anticancer activity against human SK-MEL-5 cells assessed as cell growth inhibition at 10 uM incubated for 48 hrs by SRB assay relative to control
Format: functional
Conditions: read-out: GI

**Q.** Which inhibition of growth at 10 µM does the source give for `NS(=O)(=O)c1ccc(Nc2nc(N/N=C/c3ccc(Cl)cc3)nc(Nc3ccccc3)n2)cc1` here?
**A.** Its inhibition of growth at 10 µM is 30%.

System: HL-60(TB)
Experiment: Anticancer activity against human HL-60(TB) cells assessed as cell growth inhibition at 10 uM incubated for 48 hrs by SRB assay relative to control
Format: functional
Conditions: read-out: GI

**Q.** With `NS(=O)(=O)c1ccc(Nc2nc(N/N=C/c3ccc(Cl)cc3)nc(Nc3ccccc3)n2)cc1` as the compound, how does the inhibition of growth at 10 µM read?
**A.** Its inhibition of growth at 10 µM is 27%.

System: K562
Experiment: Anticancer activity against human K562 cells assessed as cell growth inhibition at 10 uM incubated for 48 hrs by SRB assay relative to control
Format: functional
Conditions: read-out: GI

**Q.** How did the inhibition of growth at 10 µM turn out when `NS(=O)(=O)c1ccc(Nc2nc(N/N=C/c3ccc(Cl)cc3)nc(Nc3ccccc3)n2)cc1` was run?
**A.** The inhibition of growth at 10 µM was 40%.

System: OVCAR-3
Experiment: Anticancer activity against human OVCAR-3 cells assessed as cell growth inhibition at 10 uM incubated for 48 hrs by SRB assay relative to control
Format: functional
Conditions: read-out: GI

**Q.** For `NS(=O)(=O)c1ccc(Nc2nc(N/N=C/c3ccc(Cl)cc3)nc(Nc3ccccc3)n2)cc1`, which inhibition of growth at 10 µM is on record?
**A.** The inhibition of growth at 10 µM was 29%.

System: HT-29
Experiment: Anticancer activity against human HT-29 cells assessed as cell growth inhibition at 10 uM incubated for 48 hrs by SRB assay relative to control
Format: functional
Conditions: read-out: GI

**Q.** Which inhibition of growth at 10 µM does the source give for `NS(=O)(=O)c1ccc(Nc2nc(N/N=C/c3ccc(Cl)cc3)nc(Nc3ccccc3)n2)cc1` here?
**A.** The inhibition of growth at 10 µM was 65%.

System: EKVX
Experiment: Anticancer activity against human EKVX cells assessed as cell growth inhibition at 10 uM incubated for 48 hrs by SRB assay relative to control
Format: functional
Conditions: read-out: GI

**Q.** How did the inhibition of growth at 10 µM turn out when `NS(=O)(=O)c1ccc(Nc2nc(N/N=C/c3ccc(Cl)cc3)nc(Nc3ccccc3)n2)cc1` was run?
**A.** The inhibition of growth at 10 µM was 23%.

System: ACHN
Experiment: Anticancer activity against human ACHN cells assessed as cell growth inhibition at 10 uM incubated for 48 hrs by SRB assay relative to control
Format: functional
Conditions: read-out: GI

**Q.** For `NS(=O)(=O)c1ccc(Nc2nc(N/N=C/c3ccc(Cl)cc3)nc(Nc3ccccc3)n2)cc1`, which inhibition of growth at 10 µM is on record?
**A.** The inhibition of growth at 10 µM was < 10%.

System: SNB-19
Experiment: Anticancer activity against human SNB-19 cells assessed as cell growth inhibition at 10 uM incubated for 48 hrs by SRB assay relative to control
Format: functional
Conditions: read-out: GI

**Q.** `NS(=O)(=O)c1ccc(Nc2nc(N/N=C/c3ccc(Cl)cc3)nc(Nc3ccccc3)n2)cc1` was tested. Which inhibition of growth at 10 µM did it give?
**A.** The inhibition of growth at 10 µM was 18%.

System: Hs-578T
Experiment: Anticancer activity against human Hs-578T cells assessed as cell growth inhibition at 10 uM incubated for 48 hrs by SRB assay relative to control
Format: functional
Conditions: read-out: GI

**Q.** For `NS(=O)(=O)c1ccc(Nc2nc(N/N=C/c3ccc(Cl)cc3)nc(Nc3ccccc3)n2)cc1`, which inhibition of growth at 10 µM is on record?
**A.** The inhibition of growth at 10 µM was 35%.

System: IGROV-1
Experiment: Anticancer activity against human IGROV-1 cells assessed as cell growth inhibition at 10 uM incubated for 48 hrs by SRB assay relative to control
Format: functional
Conditions: read-out: GI

**Q.** For `NS(=O)(=O)c1ccc(Nc2nc(N/N=C/c3ccc(Cl)cc3)nc(Nc3ccccc3)n2)cc1`, which inhibition of growth at 10 µM is on record?
**A.** The inhibition of growth at 10 µM was 33%.

System: SN12C
Experiment: Anticancer activity against human SN12C cells assessed as cell growth inhibition at 10 uM incubated for 48 hrs by SRB assay relative to control
Format: functional
Conditions: read-out: GI

**Q.** For `NS(=O)(=O)c1ccc(Nc2nc(N/N=C/c3ccc(Cl)cc3)nc(Nc3ccccc3)n2)cc1`, which inhibition of growth at 10 µM is on record?
**A.** Its inhibition of growth at 10 µM is 18%.

System: OVCAR-8
Experiment: Anticancer activity against human OVCAR-8 cells assessed as cell growth inhibition at 10 uM incubated for 48 hrs by SRB assay relative to control
Format: functional
Conditions: read-out: GI

**Q.** Which inhibition of growth at 10 µM does the source give for `NS(=O)(=O)c1ccc(Nc2nc(N/N=C/c3ccc(Cl)cc3)nc(Nc3ccccc3)n2)cc1` here?
**A.** The inhibition of growth at 10 µM was 32%.

System: LOX IMVI
Experiment: Anticancer activity against human LOX IMVI cells assessed as cell growth inhibition at 10 uM incubated for 48 hrs by SRB assay relative to control
Format: functional
Conditions: read-out: GI

**Q.** How did the inhibition of growth at 10 µM turn out when `NS(=O)(=O)c1ccc(Nc2nc(N/N=C/c3ccc(Cl)cc3)nc(Nc3ccccc3)n2)cc1` was run?
**A.** Its inhibition of growth at 10 µM is 39%.
